Results: patent US5773644A, “Cyclopropyl alkanoic acid derivatives” (G. D. Searle & Co., priority 1997, dated 1998)
Where a name gives a salt, the structure may show the parent alone. Read-outs that look alike come from different tables or passages of the source.

Legend:
[1] = target: T1, Human vitronectin receptor (αv β3) (Homo sapiens, UniProt P05106+P06756); assay: Vitronectin adhesion assay (solid phase receptor assay, competition with biotinylated vitronectin); type: binding
T1 construct: Human vitronectin receptor(αv β3) was purified from human placenta; from tissue; host or cells: human placenta
Procedure: Human vitronectin receptor(αv β3) was purified from human placenta as previously described [Pytela et al., Methods in Enzymology, 144:475-489 (1987)]. Human vitronectin was purified from fresh frozen plasma as previously described [Yatohgo et al., Cell Structure and Function, 13:281-292 (1988)]. Biotinylated human vitronectin was prepared by coupling NHS-biotin from Pierce Chemical Company (Rockford, Ill.) to purified vitronectin as previously described [Charo et al., J. Biol. Chem., 266(3):1415-1421 (1991)]. Assay buffer, OPD substrate tablets, and RIA grade BSA were obtained from Sigma (St. Louis, Mo.). Anti-biotin antibody was obtained from Calbiochem (La Jolla, Calif.). Linbro microtiter plates were obtained from Flow Labs (McLean, Va.). ADP reagent was obtained from Sigma (St. Louis, Mo.). This assay was essentially the same as previously reported [Niiya et al., Blood, 70:475-483 (1987)]. The purified human vitronectin receptor (αv β3) was diluted from stock solutions to 1.0 μg/mL in Tris-buffered saline containing 1.0 mM Ca^++, Mg^++, and Mn^++, pH 7.4 (TBS^+++). The diluted receptor was immediately transferred to Linbro microtiter plates at 100 μL/well (100 ng receptor/well). The plates were sealed and incubated overnight at 4° C. to allow the receptor to bind to the wells. All remaining steps were at room temperature. The assay plates were emptied and 200 μL of 1% RIA grade BSA in TBS^+++ (TBS^+++ /BSA) were added to block exposed plastic surfaces. Following a 2 hour incubation, the assay plates were washed with TBS^+++ using a 96 well plate washer. Logarithmic serial dilution of the test compound and controls were made starting at a stock concentration of 2 mM and using 2 nM biotinylated vitronectin in TBS^+++ /BSA as the diluent. This premixing of labeled ligand with test (or control) ligand, and subsequent transfer of 50 μL aliquots to the assay plate was carried out with a CETUS Propette robot; the final concentration of the labeled ligand was 1 nM and the highest concentration of test compound was 1.0×10^-4 M. The competition occurred for two hours after which all wells were washed with a plate washer as before. Affinity purified horseradish peroxidase labeled goat anti-biotin antibody was diluted 1:3000 in TBS^+++ /BSA and 125 μL were added to each well. After 30 minutes, the plates were washed and incubated with OPD/H2 O2 substrate in 100 mM/L Citrate buffer, pH 5.0. The plate was read with a microtiter plate reader at a wavelength of 450 nm and when the maximum-binding control wells reached an absorbance of about 1.0, the final A450 were recorded for analysis. The data were analyzed using a macro written for use with the EXCEL™ spreadsheet program. The mean, standard deviation, and %CV were determined for duplicate concentrations. The mean A450 values were normalized to the mean of four maximum-binding controls (no competitor added) (B-MAX). The normalized values were subjected to a four parameter curve fit algorithm [Rodbard et al., Int.

[2] = target: T2, Human fibrinogen receptor (αIIb β3) (Homo sapiens, UniProt P05106+P08514); assay: Purified IIb/IIIa receptor assay (solid phase receptor assay, competition with biotinylated vitronectin); settings: inhibition of 50% of maximum binding of 1 nM biotinylated vitronectin; 2 h competition, room temperature, TBS+++ pH 7.4
T2 construct: Human fibrinogen receptor (αIIb β3) was purified from outdated platelets; from tissue; host or cells: outdated platelets (human)
Text: Human fibrinogen receptor (αIIb β3) was purified from outdated platelets. (Pytela, R., Pierschbacher, […]., Suzuki, S., and […] acid adhesion receptors", Methods in Enzymology 144(1987):475-489.) Human vitronectin was purified from fresh frozen plasma as described in Yatohgo, T., Izumi, M., Kashiwagi, H., and Hayashi, M., "Novel purification of vitronectin from human plasma by heparin affinity chromatography," Cell Structure and Function 13(1988):281-292. Biotinylated human vitronectin was prepared by coupling NHS-biotin from Pierce Chemical Company (Rockford, Ill.) to purified vitronectin as previously described. (Charo, […]., Phillips, D. R., Hsu, M. A., Scarborough, R. M., "Inhibition of fibrinogen binding to GP IIb/IIIa by a GP IIIa peptide", J. Biol. Chem. 266(3) (1991): 1415-1421.) Assay buffer, OPD substrate tablets, and RIA grade BSA were obtained from Sigma (St. Louis, Mo.). Anti-biotin antibody was obtained from Calbiochem (La Jolla, Calif.). Linbro microtiter plates were obtained from Flow Labs (McLean, Va.). ADP reagent was obtained from Sigma (St. Louis, Mo.). This assay is essentially the same reported in […]., Bader, R., Byers-Ward, […]., Plow, E. F. and Ruggeri, Z. M., "Increased surface expression of the membrane glycoprotein IIb/IIIa complex induced by platelet activation: Relationships to the binding of fibrinogen and platelet aggregation", Blood 70(1987):475-483. The purified human fibrinogen receptor (αIIb β3) was diluted from stock solutions to 1.0 μg/mL in Tris-buffered saline containing 1.0 mM Ca^++, Mg^++, and Mn^++, pH 7.4 (TBS^+++). The diluted receptor was immediately transferred to Linbro microtiter plates at 100 μL/well (100 ng receptor/well). The plates were sealed and incubated overnight at 4° C. to allow the receptor to bind to the wells. All remaining steps were at room temperature. The assay plates were emptied and 200 μL of 1% RIA grade BSA in TBS^+++ (TBS^+++ /BSA) were added to block exposed plastic surfaces. Following a 2 hour incubation, the assay plates were washed with TBS^+++ using a 96 well plate washer. Logarithmic serial dilution of the test compound and controls were made starting at a stock concentration of 2 mM and using 2 nM biotinylated vitronectin in TBS^+++ /BSA as the diluent. This premixing of labeled ligand with test (or control) ligand, and subsequent transfer of 50 μL aliquots to the assay plate was carried out with a CETUS Propette robot; the final concentration of the labeled ligand was 1 nM and the highest concentration of test compound was 1.0×10^-4 M. The competition occurred for two hours after which all wells were washed with a plate washer as before. Affinity purified horseradish peroxidase labeled goat anti-biotin antibody was diluted 1:3000 in TBS^+++ /BSA and 125 μL were added to each well. After 30 minutes, the plates were washed and incubated with […]/H2 O2 substrate in 100 mM/L citrate buffer, pH 5.0. The plate was read with a microtiter plate reader at a wavelength of 450 nm and when the maximum-binding control wells reached an absorbance of about 1.0, the final A450 were recorded for analysis. The data were analyzed using a macro written for use with the EXCELTM spreadsheet program. The mean, standard deviation, and %CV were determined for duplicate concentrations. The mean A450 values were normalized to the mean of four maximum-binding controls (no competitor added) (B-MAX). The normalized values were subjected to a four parameter curve fit algorithm, [Robard et al., Int.

[3] = inhibition of 50% of maximum binding of 1 nM biotinylated vitronectin, 2 h competition, room temperature, TBS+++ pH 7.4, read-out: AVB3 IC50

COc1cc(NC(=O)c2cccc(NC(=N)N)c2)ccc1C1CC1C(=O)O (stereo not drawn) [Example 5, 2-[4-[[[3-[(aminoiminomethyl)amino]phenyl]carbonyl]amino]-2-methoxyphenyl]cyclopropanecarboxylic acid, trifluoroacetate salt]
IC50 [1, 3]: 0.0811 µM | IC50 [2]: 2.89 µM

N=C(N)Nc1cccc(C(=O)Nc2ccc(C3CC3C(=O)O)cc2)c1 (stereo not drawn) [Example 2, 2-[4-[[[3-[(aminoiminomethyl)amino]phenyl]carbonyl]amino]phenyl]cyclopropanecarboxylic acid, trifluoroacetate salt]
IC50 [1, 3]: 0.0305 µM | IC50 [2]: 0.533 µM

NC(=O)N=C(N)Nc1cccc(C(=O)Nc2ccc(C3CC3C(=O)O)cc2)c1 (stereo not drawn) [Example 8, 2-[4-[[[3-[(amino[(aminocarbonyl)imino]methyl]amino]phenyl]carbonyl]amino]phenyl]cyclopropanecarboxylic acid, trifluoroacetate salt]
IC50 [1, 3]: 1.38 µM | IC50 [2]: 13.1 µM

N=C(N)NCCCCC(=O)NCC(=O)NC(CC(=O)O)c1cccnc1 (stereo not drawn) [β-[[2-[[5-[(aminoiminomethyl)amino]-1-oxopentyl]amino]-1-oxoethyl]amino]-3-pyridinepropanoic acid, reference compound]
IC50 ([1]; positive control included on each plate, stated range, read-out: αv β3 antagonist IC50 (positive control)): 0.003 to 0.01 µM

CCOC(=O)C1CC1c1ccc(NC(=O)c2cccc(NC(=N)N)c2)cc1 (stereo not drawn) [Example 1, ethyl 2-[4-[[[3-[(aminoiminomethyl)amino]phenyl]carbonyl]amino]phenyl]cyclopropanecarboxylate, monohydrate trifluoroacetate salt]
IC50 [1, 3]: 0.525 µM | IC50 [2]: 3.65 µM

O=C(Nc1ccc(C2CC2C(=O)O)cc1)c1cccc(NC2=NCCCN2)c1 (stereo not drawn) [Example 7, 2-[4-[[[3-[(1,4,5,6-tetrahydropyrimidin-2-yl)amino]phenyl]carbonyl]amino]phenyl]cyclopropanecarboxylic acid, trifluoroacetate salt]
IC50 [1, 3]: 0.019 µM | IC50 [2]: 4.8 µM

2-[3-[[[[3-[(aminoiminomethyl)amino]phenyl]carbonyl]amino]methyl]phenyl]cyclopropanecarboxylic acid, trifluoroacetate salt [Example 3]
IC50 [1, 3]: 0.923 µM | IC50 [2]: 5.28 µM

N=C(N)Nc1cc(C(=O)Nc2ccc(C3CC3C(=O)O)cc2)cc(C(F)(F)F)c1 (stereo not drawn) [Example 6, 2-[4-[[[3-[(aminoiminomethyl)amino]-5-(trifluoromethyl)phenyl]carbonyl]amino]phenyl]cyclopropanecarboxylic acid, trifluoroacetate salt]
IC50 [1, 3]: 0.122 µM | IC50 [2]: 9.7 µM
